Results from patent EP4772520A1, “NOVEL PRODRUG-TYPE ANTICANCER AGENT TARGETING CANCER-SPECIFIC ENZYME ACTIVITY” (priority 2023, dated 2025).

How the values were obtained:
[1] = for histological findings (organ damage): summary; for biochemical test findings / blood cell test findings: vs Vehicle; for body weight loss: 40 mg/kg i.v. three times a week for three weeks, at maximum by the final day; for RETICULOCYTE COUNT: blood cell classification, Average
Experimental: For the Vehicle group, a corresponding amount of DMSO was administered.
After blood was collected on day 22 and then euthanized, the liver, kidney, and spleen were taken out and their weights were compared.

JFCR39 cell panel = assay: Cytotoxicity test using JFCR39 cell panel (sulforhodamine B); assay type: cell-based; conditions: 39 cell lines, 48 hours; for GI50 value: comparison with SN38 and CPT-11
Experimental: The cancer cells were seeded in a 96 well plate, and on the next day, the drug solution was added according to the dilution series, and after culturing for 2 days (48 hours), cell proliferation was determined by colorimetric assay using sulforhodamine B.
Each cancer cell was seeded in a 96 well plate, and on the next day, the drug solution was added according to the dilution series, and after culturing for 2 days (48 hours), cell proliferation was measured by colorimetric quantification with sulforhodamine B.

SHP77-luc = assay: Tumor proliferation suppression test in small cell lung cancer orthotopic model; assay type: in vivo, mice; conditions: 40 mg/kg i.v. twice a week for 4 weeks; for tumor growth (luciferin/luciferase luminescence): n = 6, vs Vehicle
Experimental: The tumor proliferation suppression effect of the developed prodrugs SN38-βGal and SN38-βGlcNAc in a small cell lung cancer model was evaluated. The model was created by orthotopically transplanting SHP77-luc in which luciferase was expressed in a small cell lung cancer cell line SHP77 relative to BALB/cAJcl-nu/nu into the lung. The Vehicle (DMSO administration) group, the SN38-βGal administration group, and the SN38-βGlcNAc administration group were n = 6, respectively. The administration form was intravenous administration (i.v.), and the dose was 40 mg/kg, and administration was performed twice a week for 4 weeks. The tumor burden was evaluated by the luciferin/luciferase luminescence value.
A specific procedure of the therapeutic experiment is shown below. • (1) Model mice were created by the following procedure using 20 BALB/cAJcl-nu/nu (7 weeks old/female) mice. 150 to 200 µL of an anesthetic (a mixture of 3 kinds of Domitor + Betorphal + Mitazolam) was intraperitoneally administered to perform anesthesia. The skin of the left chest was incised, the subcutaneous tissue was detached, and then SHP77 luc cell suspension 2 × 10^7 cells/mL (50 µL, 5% Matrigel) was injected from the intercostal pleura to the left lung. The skin was sutured at 3 sites, and 150 to 200 µL of an anti-sedan (atipamezol) solution was intraperitoneally administered to check awakening of the mice. • (2) After 3 weeks, the formation of cancer was confirmed by luciferin/luciferase luminescence, and the administration of the drug was started. The drug was prepared by dissolving 200 mM of DMSO stock in PBS, and was administered from the tail vein in a total amount of 100 µL.3 mg (200 µL) of luciferin was intraperitoneally administered, and anesthetized with isoflurane. Thereafter, the luminescent value at 15 minutes after administration was measured by an in vivo imaging device. • (3) On the day of evaluation, the tumor burden was evaluated by the body weight and the luciferin/luciferase luminescence.

[2] = Single dose toxicity test 2 (intravenous); assay type: in vivo, Jcl: ICR mice (female); conditions: for Survival rate (%) (after 14 days) / Survival rate (%) (just after administration): n=10; for symptoms immediately after administration: SN38-βGal 300 mg/kg, SN38-βGlcNAc 500 mg/kg intravenous, improved in several hours; for LD50 at 336 h: mouse, in vivo, iv, single intravenous administration, estimated
Experimental: Single dose toxicity was evaluated by intravenously administering the novel prodrug-type anticancer agents SN38-βGal and SN38-βGlcNAc to Jcl: ICR mice (female). […] 500 mg/kg of SN38-βGlcNAc was intravenously administered.

[3] = Single dose toxicity test 1 (intravenous); assay type: in vivo, Jcl: ICR mice (female); conditions: for symptoms immediately after administration: 200 mg/kg intravenous, improved in several hours; for Survival rate (%) (after 10 days) / Survival rate (%) (just after administration): 200 mg/kg single intravenous administration, n=10; for LD50 at 240 h: mouse, in vivo, iv, single intravenous administration, estimated
Experimental: Single dose toxicity was evaluated by intravenously administering 200 mg/kg each of the novel prodrug-type anticancer agents SN38-βGal and SN38-βGlcNAc to Jcl: ICR mice (female).

[4] = test system: luciferase-expressing A549 cells; assay: Therapeutic experiment 2 in A549 lung cancer orthotopic transplantation model; assay type: in vivo, mice; conditions: i.v. 40 mg/kg 5 times then 80 mg/kg 7 times every other day; for tumor suppression effect (luciferin/luciferase chemiluminescence): vs Vehicle
Experimental: Using SN38-βGal and SN38-βGlcNAc, the dose was increased to verify the therapeutic effect in the lung cancer orthotopic transplantation model. Whether the tumor suppression effect was confirmed was evaluated as compared with the Vehicle group (DMSO administration) by separating the SN38-βGal and SN38-βGlcNAc administration groups. The evaluation was performed on luciferase-expressing A549 cell […] mice using BALB/cAJcl-nu/nu with n = 3 for the Vehicle group, n = 4 for the SN38-βGal group, and n = 5 for the SN38-βGlcNAc group. The administration form was intravenous administration (i.v.).
For administration, 40 mg/kg was administered 5 times in total every other day, and then 80 mg/kg was administered 7 times in total every other day. The tumor burden was determined by evaluating the luciferin/luciferase chemiluminescence value. The endpoint was a significant body weight loss (20% loss).
A specific procedure of the therapeutic experiment is shown below. • (1) Model mice were created by the following operation using BALB/cAJcl-nu/nu (7 weeks old). The skin of the chest was incised, and the skin was subcutaneously detached, then luciferase-expressing A549 cells 2 × 10^7 cells/mL (50 µL, 5% Matrigel) was injected from the intercostal pleura to the left lung. After injection, the skin was sutured. • (2) After 1 week, the formation of cancer was confirmed by luciferin/luciferase chemiluminescence, and the intravenous administration of the drug was started. The drug was prepared by dissolving a 200 mM of DMSO stock in PBS, and administered in a total amount of 100 µL. 3 mg (200 µL) of luciferin was administered by intraperitoneal administration, and anesthetized with isoflurane. Thereafter, the chemiluminescent value at 20 minutes after administration was measured by an in vivo imaging device. • (3) On the day of evaluation, the tumor burden was evaluated by luciferin/luciferase chemiluminescence. • (4) After completion of the treatment, HMRef-βGlcNAc, 5 mg/kg (100 µL PBS) was administered by intravenous administration. 30 minutes after administration, the sternum was incised, and the lungs were taken out. • (5) The cancer lesion was fluorescently imaged by an in vivo fluorescence imaging device, and comparison between the Vehicle and the administration group was performed.

## CCc1c2c(nc3ccc(O[C@@H]4O[C@H](CO)[C@H](O)[C@H](O)[C@H]4O)cc13)-c1cc3c(c(=O)n1C2)COC(=O)[C@]3(O)CC [SN38-βGal]
[1]; 40 mg/kg i.v. repeated
  Histological findings in kidney: organ damage to the kidney was not observed
  Histological findings in large intestine: the side effects were very mild as compared with CPT-11
  Histological findings in liver: organ damage to the liver was not observed
  Histological findings in small intestine: the side effects were very mild as compared with CPT-11
  Histological findings in spleen: organ damage to the spleen was very mild
  histological findings (organ damage): no organ damage was observed in the small intestine, large intestine, kidney, liver, and spleen
  biochemical test findings: a slight decrease in AST and ALT values was observed
  blood cell test findings: a slight increase in eosinophils and a decrease in basophils were estimated
  RETICULOCYTE COUNT: 220300 µL⁻¹
[1]
  body weight loss: significant body weight loss was not observed
JFCR39 cell panel
  suppression of cell proliferation: suppressed proliferation of almost all cancer cells
  GI50 value: close to SN38 and lower than CPT-11
SHP77-luc
  body weight: no body weight loss was found during the treatment period
  tumor growth (luciferin/luciferase luminescence): significant suppression of tumor growth was confirmed
[2]; 200 mg/kg intravenous
  Survival rate (%) (after 14 days): 100%
  Survival rate (%) (just after administration): 100%
[2]
  symptoms immediately after administration: reduced locomotor activity and prone states were found in more than half of the mice in both groups
  LD50 at 336 h: ≥ 300 mg/kg
[3]
  symptoms immediately after administration: reduced locomotor activity, tremor, and prone states were found in more than half of the mice in both groups
  Survival rate (%) (after 10 days): 100%
  Survival rate (%) (just after administration): 100%
  LD50 at 240 h: ≥ 200 mg/kg
[4]
  body weight: the body weight loss was not found in the first 2 weeks
  tumor suppression effect (luciferin/luciferase chemiluminescence): the tumor growth was significantly suppressed in all mice

## CCc1c2c(nc3ccc(O[C@@H]4O[C@H](CO)[C@@H](O)[C@H](O)[C@H]4NC(C)=O)cc13)-c1cc3c(c(=O)n1C2)COC(=O)[C@]3(O)CC [SN38-βGlcNAc]
[1]; 40 mg/kg i.v. repeated
  Histological findings in kidney: organ damage to the kidney was not observed
  Histological findings in large intestine: the side effects were very mild as compared with CPT-11
  Histological findings in liver: organ damage to the liver was not observed
  Histological findings in small intestine: the side effects were very mild as compared with CPT-11
  Histological findings in spleen: organ damage to the spleen was very mild
  histological findings (organ damage): no organ damage was observed in the small intestine, large intestine, kidney, liver, and spleen
  biochemical test findings: slight increases in urea nitrogen and creatinine were observed
  blood cell test findings: an increase in eosinophils and a decrease in basophils were estimated
  RETICULOCYTE COUNT: 242300 µL⁻¹
[1]; 40 mg/kg i.v. repeated, day 22, vs Vehicle
  organ weight (liver, kidney, spleen): An increase in spleen weight was observed
[1]
  body weight loss: significant body weight loss was not observed
JFCR39 cell panel
  suppression of cell proliferation: suppressed proliferation of almost all cancer cells
  GI50 value: close to SN38 and lower than CPT-11
SHP77-luc
  body weight: no body weight loss was found during the treatment period
  tumor growth (luciferin/luciferase luminescence): significant suppression of tumor growth was confirmed
[2]; 200 mg/kg intravenous
  Survival rate (%) (after 14 days): 100%
  Survival rate (%) (just after administration): 100%
[2]; 300 mg/kg intravenous
  Survival rate (%) (after 14 days): 100%
  Survival rate (%) (just after administration): 100%
[2]; 500 mg/kg intravenous
  Survival rate (%) (after 14 days): 100%
  Survival rate (%) (just after administration): 100%
[2]
  symptoms immediately after administration: reduced locomotor activity and prone states were found in more than half of the mice in both groups
  LD50 at 336 h: ≥ 500 mg/kg
[3]
  symptoms immediately after administration: reduced locomotor activity, tremor, and prone states were found in more than half of the mice in both groups
  Survival rate (%) (after 10 days): 100%
  Survival rate (%) (just after administration): 100%
  LD50 at 240 h: ≥ 200 mg/kg
[4]
  body weight: the body weight loss was not found in the first 2 weeks
  tumor suppression effect (luciferin/luciferase chemiluminescence): the tumor growth was significantly suppressed in all mice
